Source: paper PMC12155096 (International Journal of Molecular Sciences, 2025)

Tests used:
[1] = molecular target: T1, human CYP1A2 (Homo sapiens, UniProt P05177)
T1 sequence (P05177 1-516): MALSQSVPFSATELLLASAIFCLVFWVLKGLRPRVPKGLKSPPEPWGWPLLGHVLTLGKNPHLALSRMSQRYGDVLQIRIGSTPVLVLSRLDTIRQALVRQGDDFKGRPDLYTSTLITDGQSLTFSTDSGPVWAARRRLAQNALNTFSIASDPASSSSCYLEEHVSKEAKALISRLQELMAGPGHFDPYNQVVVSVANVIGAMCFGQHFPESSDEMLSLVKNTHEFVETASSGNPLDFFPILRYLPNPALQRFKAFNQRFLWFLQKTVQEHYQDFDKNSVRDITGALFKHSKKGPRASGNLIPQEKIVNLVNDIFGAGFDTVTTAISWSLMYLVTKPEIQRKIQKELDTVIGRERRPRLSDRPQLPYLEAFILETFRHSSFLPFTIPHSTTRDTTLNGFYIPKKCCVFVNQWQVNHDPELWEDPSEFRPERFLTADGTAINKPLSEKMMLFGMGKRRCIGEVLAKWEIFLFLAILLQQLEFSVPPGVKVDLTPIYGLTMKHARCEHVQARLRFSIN

[2] = molecular target: CYP3A4 (Homo sapiens, UniProt P08684)
CYP3A4, sequence (P08684 whole entry): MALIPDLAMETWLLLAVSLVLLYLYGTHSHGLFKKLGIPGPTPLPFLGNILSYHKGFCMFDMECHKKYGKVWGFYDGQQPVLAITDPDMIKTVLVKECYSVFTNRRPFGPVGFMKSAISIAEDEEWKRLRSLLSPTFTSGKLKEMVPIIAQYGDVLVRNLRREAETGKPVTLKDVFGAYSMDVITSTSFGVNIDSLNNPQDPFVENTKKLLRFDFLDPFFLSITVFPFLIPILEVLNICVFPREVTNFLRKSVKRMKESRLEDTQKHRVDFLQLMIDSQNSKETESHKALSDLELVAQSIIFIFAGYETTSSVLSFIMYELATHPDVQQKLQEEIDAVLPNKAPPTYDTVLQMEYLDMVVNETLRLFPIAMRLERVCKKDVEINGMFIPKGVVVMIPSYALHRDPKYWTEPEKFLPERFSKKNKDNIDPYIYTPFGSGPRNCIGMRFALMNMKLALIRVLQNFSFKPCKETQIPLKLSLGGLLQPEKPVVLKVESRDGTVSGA

[3] = molecular target: human CYP2D6 (Homo sapiens, UniProt P10635)
human CYP2D6, sequence (P10635 whole entry): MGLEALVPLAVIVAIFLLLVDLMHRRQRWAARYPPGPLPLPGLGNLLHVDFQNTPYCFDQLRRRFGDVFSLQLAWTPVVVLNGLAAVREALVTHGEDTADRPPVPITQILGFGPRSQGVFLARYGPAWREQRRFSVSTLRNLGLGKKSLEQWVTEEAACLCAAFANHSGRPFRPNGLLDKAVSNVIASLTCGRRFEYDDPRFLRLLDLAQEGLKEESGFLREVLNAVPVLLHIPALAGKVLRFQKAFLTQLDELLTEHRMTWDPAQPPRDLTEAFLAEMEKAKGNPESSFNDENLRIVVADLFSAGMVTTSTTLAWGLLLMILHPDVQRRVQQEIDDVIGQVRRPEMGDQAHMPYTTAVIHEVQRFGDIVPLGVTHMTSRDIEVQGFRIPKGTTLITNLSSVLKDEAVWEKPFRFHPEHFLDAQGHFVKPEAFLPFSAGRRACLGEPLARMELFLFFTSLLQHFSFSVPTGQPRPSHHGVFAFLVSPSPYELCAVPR

[4] = molecular target: human CYP2C9 (Homo sapiens, UniProt P11712)
human CYP2C9, sequence (P11712 whole entry): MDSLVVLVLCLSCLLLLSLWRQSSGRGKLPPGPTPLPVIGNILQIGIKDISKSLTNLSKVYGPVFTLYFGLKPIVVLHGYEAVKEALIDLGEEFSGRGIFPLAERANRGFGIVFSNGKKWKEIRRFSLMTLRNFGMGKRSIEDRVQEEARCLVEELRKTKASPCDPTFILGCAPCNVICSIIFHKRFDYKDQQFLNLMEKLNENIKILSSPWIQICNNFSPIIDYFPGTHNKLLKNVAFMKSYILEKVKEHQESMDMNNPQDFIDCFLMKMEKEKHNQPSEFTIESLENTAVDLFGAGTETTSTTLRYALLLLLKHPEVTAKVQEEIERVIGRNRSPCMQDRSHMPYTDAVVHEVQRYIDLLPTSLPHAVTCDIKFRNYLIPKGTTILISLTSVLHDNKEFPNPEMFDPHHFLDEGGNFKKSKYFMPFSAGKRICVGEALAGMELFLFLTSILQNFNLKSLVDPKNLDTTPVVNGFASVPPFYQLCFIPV

[5] = molecular target: human CYP2C19 (Homo sapiens, UniProt P33261)
human CYP2C19, sequence (P33261 whole entry): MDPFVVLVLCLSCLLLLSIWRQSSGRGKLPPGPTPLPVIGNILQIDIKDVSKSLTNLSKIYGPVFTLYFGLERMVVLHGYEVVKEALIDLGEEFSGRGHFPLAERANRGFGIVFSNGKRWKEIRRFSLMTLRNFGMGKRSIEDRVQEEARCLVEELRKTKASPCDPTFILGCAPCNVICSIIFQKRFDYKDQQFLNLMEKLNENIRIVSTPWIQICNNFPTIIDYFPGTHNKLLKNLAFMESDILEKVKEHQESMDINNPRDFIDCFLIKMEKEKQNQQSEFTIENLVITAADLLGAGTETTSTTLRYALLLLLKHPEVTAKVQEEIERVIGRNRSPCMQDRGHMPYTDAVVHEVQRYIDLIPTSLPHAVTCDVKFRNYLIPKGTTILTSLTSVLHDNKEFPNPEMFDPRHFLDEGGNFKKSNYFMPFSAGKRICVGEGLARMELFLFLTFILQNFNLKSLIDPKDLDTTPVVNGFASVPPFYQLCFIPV

Row | SMILES | CYP1A2 AC50 (half-maximal activity concentration) [1] | CYP3A4 AC50 (half-maximal activity concentration) [2] | CYP2D6 AC50 (half-maximal activity concentration) [3] | AC50 [4] [µM] | CYP2C19 AC50 (half-maximal activity concentration) [5] | AC50 [2] [µM] | AC50 [3] [µM] | AC50 [1] [µM] | AC50 [5] [µM] | CYP2C9 AC50 (half-maximal activity concentration) [4]
1 | Clc1cnc(Oc2ccc(Oc3ncc(Cl)cc3Cl)cc2)c(Cl)c1 | Inactive | Inconclusive activator | Inactive | 2.34 | Inactive |  |  |  |  | 
2 | C1CC(COCC2CO2)CCC1COCC1CO1 (stereo not shown) | Inconclusive inhibitor |  | Inactive | 56.6 | Inconclusive inhibitor | 73.9 |  |  |  | 
3 | CCCCCCCCCCCCCC[N+](C)(C)Cc1ccccc1.O.O.[Cl-] | Inactive |  |  | 40.7 | Inactive | 11.3 | 2.01 |  |  | 
4 | CC1=Nc2ccc3ccccc3c2C1(C)C [1,1,2-Trimethyl-1H-benzo[e]indole] |  |  |  | 51.7 |  | 2.84 | 54 | 26.7 | 10.1 | 
5 | c1ccc(SCCSc2ccccc2)cc1 [1,2-Bis(phenylthio)ethane] |  |  |  | 31.4 |  | 8.36 | 56.1 | 29.2 | 3.06 | 
6 | O=C(O)c1ccc(OCCCOc2ccc(C(=O)O)cc2)cc1 [1,3-Bis(4-carboxyphenoxy)propane] | Inactive |  |  |  | Inactive | 26.4 | 8.08 |  |  | Inactive
7 | C=C(C)C(=O)OCCCCCCOC(=O)C(=C)C [1,6-Hexanediol dimethacrylate] |  |  | Inactive | 37.4 |  | 16.9 |  | 37 | 51.5 | 
8 | C=C(C)C(=O)OCCCCCCCCCCOC(=O)C(=C)C [1,10-Decanediol dimethacrylate] |  |  |  |  | Inconclusive inhibitor | 46.2 | 37 | 40.1 |  | Inconclusive inhibitor
9 | BrCc1cccc(Oc2ccccc2)c1 [1-(Bromomethyl)-3-phenoxybenzene] |  |  |  | 82.9 |  | 80 | 50.3 | 41.5 | 19.9 | 
10 | CCCCCCCCS(=O)(=O)Cl [1-Octanesulfonyl chloride] | Inactive |  | Inconclusive inhibitor | 28.7 | Inconclusive inhibitor | 22.9 |  |  |  | 
11 | O=C1NC(=O)c2cccc3cccc1c23 [1H-Benzo[de]isoquinoline-1,3(2H)-dione] |  | Inconclusive activator | Inactive | 33.1 | Inconclusive inhibitor |  |  | 2.74 |  | 
12 | COC(OC)(C(=O)c1ccccc1)c1ccccc1 [2,2-Dimethoxy-1,2-diphenylethanone] | Inactive |  |  | 22.5 |  | 10.2 | 34.6 |  | 15.9 | 
13 | O=C(c1ccc(O)c(O)c1)c1ccc(O)cc1O [2,3',4,4'-Tetrahydroxybenzophenone] |  |  |  | 4.22 |  | 18.4 | 7.5 | 34.3 | 33.2 | 
14 | O=C(O)c1cc2ccccc2nc1C(=O)O [2,3-Quinolinedicarboxylic acid] |  |  | Inactive |  | Inactive | 25.2 |  | 47.9 |  | Inactive
15 | O=C(c1ccc(O)cc1)c1ccc(O)cc1O [2,4,4'-Trihydroxybenzophenone] |  |  |  | 3.18 | Inactive | 19.4 | 33 | 34.3 |  | 
16 | O=S(=O)(O)c1cc(Cl)c(Cl)cc1Cl [2,4,5-Trichlorobenzenesulfonic acid] | Inconclusive inhibitor |  | Inconclusive | 33 | Inconclusive inhibitor | 48.3 |  |  |  | 
17 | CCOC(=O)COc1ccc(Cl)cc1Cl [2,4-D-ethyl ester] |  |  | Inconclusive inhibitor | 55.5 |  | 17.1 |  | 30.8 | 26.8 | 
18 | O=C([O-])CCCOc1ccc(Cl)cc1Cl.[Na+] [2,4-DB-sodium] | Inactive |  | Inactive | 60.6 | Inconclusive inhibitor | 46.2 |  |  |  | 

Row | SMILES | CYP1A2 AC50 (half-maximal activity concentration) [1] | CYP3A4 AC50 (half-maximal activity concentration) [2] | CYP2D6 AC50 (half-maximal activity concentration) [3] | AC50 [4] [µM] | CYP2C19 AC50 (half-maximal activity concentration) [5] | AC50 [2] [µM] | AC50 [3] [µM] | AC50 [1] [µM] | AC50 [5] [µM] | CYP2C9 AC50 (half-maximal activity concentration) [4]
19 | COc1ccc(C(=O)c2ccc(O)cc2)c(OC)c1 [2,4-Dimethoxy-4'-hydroxy benzophenone] |  |  | Inconclusive inhibitor | 0.64 |  | 31.7 |  | 49.2 | 6.52 | 
20 | CCCC(C)c1ccccc1O (stereo not shown) [2-(1-Methylbutyl)phenol] |  | Inactive | Inactive | 49 |  |  |  | 56.6 | 10.9 | 
21 | c1ccc(CCCc2ccccn2)cc1 [2-(3-Phenylpropyl)pyridine] |  |  |  | 33.1 |  | 8.01 | 53.2 | 31.2 | 7.19 | 
22 | Nc1ccccc1S(=O)(=O)c1ccccc1 [2-(Phenylsulfonyl)aniline] |  |  | Inactive | 8.25 |  | 71 |  | 50.5 | 17.8 | 
23 | CC(C)c1ccc2sc3ccccc3c(=O)c2c1 [2-(Propan-2-yl)-9H-thioxanthen-9-one] |  |  |  | 15.6 |  | 7.71 | 27.5 | 7.68 | 13.1 | 
24 | NS(=O)(=O)c1ccccc1OC(F)(F)F [2-(Trifluoromethoxy)benzenesulfonamide] |  | Inactive | Inactive | 62.1 | Inconclusive inhibitor |  |  | 51.9 |  | 
25 | CC(=O)c1cc2ccccc2s1 [2-Acetylbenzo[b]thiophene] |  |  | Inactive |  | Inactive | 24.6 |  | 6.92 |  | Inactive
26 | Nc1ccc(Cl)cc1C(=O)c1ccccc1F [2-Amino-5-chloro-2'-fluorobenzophenone] |  |  | Inactive | 16.1 |  | 8.75 |  | 14.4 | 11.9 | 
27 | CC(C)NC(=O)c1ccccc1N [2-Amino-N-(1-methylethyl)benzamide] |  |  | Inactive |  |  | 35.7 |  | 51.1 | 3.36 | Inactive
28 | NC(=O)Nc1nc2ccccc2[nH]1 [2-Benzimidazolylurea] |  |  |  | 60.5 |  | 47.5 | 34.2 | 47.2 | 47.2 | 
29 | Brc1nc2ccccc2s1 [2-Bromobenzothiazole] |  |  | Inactive |  | Inactive | 45.5 |  | 11.1 |  | Inactive
30 | CCCCN1C(=O)c2ccccc2C1=O [2-Butyl-1H-isoindole-1,3(2H)-dione] |  |  | Inactive | 50.6 |  | 25.6 |  | 2.03 | 26.6 | 
31 | Cc1cc(O)c(Cl)cc1C [2-Chloro-4,5-dimethylphenol] |  | Inactive | Inactive | 34.3 |  |  |  | 27.7 | 61.8 | 
32 | CCCCCCCCC(CCCCCC)C(=O)O (stereo not shown) [2-Hexyldecanoic acid] | Inactive |  | Inactive | 26.2 |  | 65.1 |  |  | 34.3 | 
33 | CCCCCC=CCC1CC(=O)OC1=O (stereo not shown) [2-Octen-1-ylsuccinic anhydride] |  |  | Inactive |  |  | 31.9 |  | 31.9 | 55 | Inactive
34 | O=C(C=Cc1ccccc1)OCCc1ccccc1 [2-Phenylethyl 3-phenylprop-2-enoate] |  |  | Inactive | 25.6 |  | 15.7 |  | 6.35 | 20.8 | 
35 | O=C(O)c1cc(Br)c(O)c(Br)c1 [3,5-Dibromo-4-hydroxybenzoic acid] |  |  | Inconclusive inhibitor | 68.4 |  | 35.7 |  | 35.7 | 23.8 | 
